Results: US6555125B2, “Lesion and ulcer medication” (priority 1999, dated 2003)

Experiments:
[1] = Antimicrobial/bacteriostatic effect of zinc oxide at low levels; conditions: even at low levels
Streptococcus mutans = conditions: especially with respect to Streptococcus mutans; cited from earlier work

[O]=[Zn] [Zinc oxide, Zinc Oxide]
antimicrobial/bacteriostatic effect [1]: effective antimicrobial/bacteriostatic effect | antimicrobial properties (Streptococcus mutans): antimicrobial properties
